This is an account of results in a melting point compilation (Tetko et al.; mined from patent text by program, amines drawn as free bases though some values may be those of a salt).

Structures are written as SMILES. Some results are limits rather than exact numbers.

Consider `Cc1nnc(Cc2ccc(NC(=O)/C=C/c3cnn(C)c3-c3ccc(F)cc3)cc2)o1`, for which the melting point – broadly, the temperature of the solid-liquid transition – was in the range of 151 to 152 °C.

Compound `CC1=C(C(=O)O)CCC(C)(C)C1` came in with a melting point of 108 to 110 °C.

Take `COc1cc(C2(CNC(=O)Nc3c(C(C)C)cccc3C(C)C)CCC2)cc(OC)c1OC`: the melting point lay in the range of 145 to 147 °C.

`O=C(O)Cc1c([N+](=O)[O-])cc(O)c(O)c1[N+](=O)[O-]`: the melting point lay within 178 to 184 °C.

As for `CN(C)CCNC(=O)N1CCC(Oc2cccc(Cl)c2Cl)C1` (configuration not stated), the melting point is 94 to 95 °C.

In turn, `O=C1[C@H]2Cc3c([nH]c4ccccc34)[C@@H](c3ccc4c(c3)OCO4)N2C(=O)C2CNCCN12` (some centres not stated) registered a melting point of 226 to 237 °C.

Take `CN1C(=O)CSC=C1c1ccccc1`: the melting point lay in the range of 95 to 97 °C.

Compound `N#Cc1nn(-c2c(Cl)cc(C(F)(F)F)cc2Cl)c(N2CCOCC2)c1S(=O)(=O)C(F)(F)F` returned a melting point of 167 to 169 °C.

Compound `O=[N+]([O-])c1ccc(NC(CO)(CO)CO)cc1` yielded a melting point of 165 °C.

On to `OC(CNC1=NCCCN1)c1ccccc1` (configuration not stated), for which the melting point came out at 188 °C.

For the compound `CCCc1nc2c(N)nc3cc(OCc4cccc(N)c4)ccc3c2n1CC(C)C`, the melting point was in the range of 228 to 230 °C.

`OCc1cc(-c2ccccc2)no1`: the melting point is 48 to 50 °C.

Turning to `C[C@H](CSc1nc2ccccc2[nH]1)Nc1nc(Cl)nc2c1ncn2[C@@H]1O[C@H](CO)[C@@H](O)[C@H]1O`, the melting point lay within 213 to 215 °C.

In turn, `CCOC(=O)C(C)Oc1ccc(Oc2nc3ccc(Cl)nc3s2)cc1` (configuration not stated) yielded a melting point of 60 to 62 °C.

In the case of `CC1(C)Oc2cc3nonc3cc2C(N2CCCC2=O)C1O` (configuration not stated), the melting point was in the range of 242 to 244 °C.

The compound `Cc1noc(C)c1Cn1nnnc1-c1cccc(Cl)c1Cl` showed a melting point of 176 to 178 °C.

The compound `O=C(O)c1cccc(Oc2ccc([N+](=O)[O-])cc2Cl)c1` displayed a melting point of 172 to 173 °C.

For the compound `Cn1ccc2cccc(C3=C(c4c[nH]c5c(CCCO)cccc45)C(=O)NC3=O)c21`, the melting point fell in the range of 183 to 185 °C.

`Nc1nc(Cl)cc(CCl)n1` showed a melting point of 126 to 128 °C.

The compound `ClCCC1(CCCl)c2ccccc2Sc2ccccc21` had a melting point of 61 to 62 °C.

Compound `C#CCc1c(Cl)nc(N)nc1Cl` displayed a melting point of 211 to 212 °C.

`CCN(CC)CCNC(=O)c1ccc2cc(I)ccc2n1` gave a melting point of 75 to 77 °C.

In turn, `CCC(=O)C(=CS(=O)(=O)c1ccc(OS(=O)(=O)c2ccc(C)cc2)cc1)N(C)C` registered a melting point of 148 to 150 °C.

Regarding `c1ccc(-c2ccc(Nc3nccc(-c4ccc(-c5ccc(N(c6ccccc6)c6ccccc6)cc5)cc4)n3)cc2)cc1`, the melting point was more than 300 °C.

Consider `Cc1cc(C(C)(C)O)ccc1-c1ccccc1`, for which the melting point fell in the range of 60 to 64 °C.

For `COc1ccc(C2(C#N)CCC(=O)CC2)cc1OC1CCCC1`, the melting point lay within 111 to 112 °C.

As to `C=C(c1ccsc1C=O)c1cc(C(C)(C)C)cc2c1CCC2(C)C`, the melting point lay in the range of 99 to 100 °C.

The compound `O=C1N(N2CCCCC2)c2ccccc2C1(Cc1ccnc(F)c1)c1ccccc1` (configuration not stated) displayed a melting point of 129 to 132 °C.

In turn, `CC1=NCCN1Cc1ccc(CCNC(=O)c2ccc(-c3ccc(Cl)cc3)cc2)cc1` yielded a melting point of 170 to 172 °C.

Take `COc1cc(OC)c(-c2cccs2)cc1/C=C/C(=O)c1cccc(C(=O)O)c1`: the melting point was in the range of 179 to 182 °C.

Compound `COc1ccc(/C=C/c2nc3ccccc3n2-c2ccccn2)cc1` showed a melting point of 146 °C.

With `CN(C)c1cc2nc(C(C)(C)C)sc2cc1N=C=S`, the melting point fell in the range of 63 to 66 °C.

Compound `Cc1cc(OC2SCC(O)C(O)C2O)cc(C)c1-c1ccncc1` (configuration not stated) displayed a melting point of 106 to 107 °C.

Turning to `CC1(C)CCSc2cc(-c3cc(-c4ccc(C(=O)O)cc4)ccc3-c3ccccc3)ccc21`, the melting point came out at 180 °C.

`Cc1ccc(S(=O)(=O)NC(=O)Nc2ccc(C(F)(F)F)cc2)cc1` showed a melting point of 194 to 197 °C.

`O=c1c2ccccc2[nH]c(=S)n1CCN1CCC(Nc2nc3ccccc3n2Cc2ccc(F)cc2)CC1` showed a melting point of 198 °C.

`CCCCc1nc2c(N)nc3ccc(OCc4ccccc4)cc3c2n1C` came in with a melting point of 198 to 199 °C.

As to `CC1(C(F)(F)F)CCCN1C(=O)c1c(F)cccc1F` (configuration not stated), the melting point was 119 to 120 °C.

In the case of `CC(=O)c1c(-c2ccccc2)nn(CC2CC2)c(=O)c1Nc1cccc2ncccc12`, the melting point was in the range of 204 to 205 °C.

As for `CC(C)Oc1ccc(S(=O)(=O)c2c(O)cccc2F)c([N+](=O)[O-])c1`, the melting point fell in the range of 117 to 119 °C.

For the compound `O=C(OCc1ccccc1)N1CCC2(CC1)CN(c1ccccc1)C(=O)O2`, the melting point is 100 to 102 °C.

Turning to `Fc1ccc(NC(=S)Nc2ncccc2OCc2c(F)cccc2Cl)cc1`, the melting point was in the range of 146 to 148 °C.

Take `Fc1ccc(Cn2c(N3CCC(Nc4nc5ccccc5n4Cc4ccccc4)CC3)nc3ccccc32)cc1`: the melting point was 164 °C.

For the compound `Cc1c(C)c(N2CCN(c3ccc(C#N)cc3)CC2)c(C)c2c1OC(C)(C)C2`, the melting point lay within 255 to 257 °C.

Turning to `CCOC(=O)CNC(=O)N1CS(=O)c2c1cc(C(F)(F)F)cc2[N+](=O)[O-]` (configuration not stated), the melting point was 150 °C.

`CC(N)c1c[nH]c(-c2ccccc2)n1` (configuration not stated) registered a melting point of 30 °C.

With `CCc1cc(C)cc(CC)c1C(C(N)=O)C(N)=O`, the melting point lay in the range of 184 to 186 °C.

On to `CC(c1ccc(-c2ccccc2)c(F)c1)c1csc(NC(=O)C(N)=O)n1` (configuration not stated), for which the melting point was 179 to 180 °C.

For the compound `CCOP(=O)(Cc1ccc(NC(=O)CCc2sc(N)nc2-c2ccc(Cl)cc2)cc1)OCC`, the melting point was in the range of 177 to 178 °C.

`CCOC(=O)c1cnc(S(=O)Cc2ccccc2)n1-c1c(CC)cccc1CC` (configuration not stated) displayed a melting point of 82 to 83 °C.

Compound `Oc1cccnc1C=NNc1ccc(F)cc1` yielded a melting point of 223 to 225 °C.

As to `CCCCCCN(CCCCCC)C(=O)COc1cc(C(=O)O)c([N+](=O)[O-])c(C(=O)O)c1`, the melting point is 180 to 184 °C.

`CCOC(=O)c1cnc2c(cnn2CCC(C)C)c1O` showed a melting point of 65 to 70 °C.

Consider `CC1(C)CC(N(CCCCCCN(CCC(=O)O)C2CC(C)(C)NC(C)(C)C2)CCC(=O)O)CC(C)(C)N1`, for which the melting point is more than 250 °C.

As for `CC(=O)Oc1ccc(/C=C/c2cc(C)cc(C)c2)cc1`, the melting point was 84.9 to 85 °C.

Turning to `COc1c(OCc2ccccc2)c(OC)c2c(=O)cc(-c3ccc(OCc4ccccc4)c(OCc4ccccc4)c3)oc2c1OC`, the melting point fell in the range of 155 to 156 °C.

On to `CCCCC(C)OC(=O)c1ccccc1S(=O)(=O)NC(=O)Nc1nc(C)nc(OC)n1` (configuration not stated), for which the melting point was 125 to 130 °C.

The compound `CC(C)c1cccc(C(C)C)c1NC(=O)NC1CCC(C(C)(C)C)CC1` (configuration not stated) came in with a melting point of 264 to 266 °C.

On to `Cc1oc(-c2ccc(C(F)(F)F)cc2)nc1COc1ccc(CN(O)C(=O)NN)cc1`, for which the melting point fell in the range of 94 to 95 °C.

`CCCOc1ccc(Br)cc1-c1nc2c(CCC)nn(C)c2c(=O)[nH]1`: the melting point lay within 117 to 118 °C.

`CCOC(=O)c1cc(NS(=O)(=O)c2ccc(Cl)nc2)ccc1Oc1cncc(Cl)c1` had a melting point of 166 to 168 °C.

In turn, `O=C1NC(=O)c2c1cnc1[nH]ncc21` came in with a melting point of 285 to 300 °C.

`Cc1cnc2ncc(-c3cccc(-c4ccccc4C#N)c3)n2n1`: the melting point was 211 to 216 °C.

The compound `COc1cc(C(=O)c2nc(C(=O)O)c3ccccn23)ccc1N` showed a melting point of 226 °C.

`O=C1CCc2c1cccc2-c1ccccc1`: the melting point lay within 85 to 90 °C.

Turning to `NC(=N[N+](=O)[O-])N1CCN(Cc2ccc(Cl)nc2)C1`, the melting point was in the range of 170 to 174 °C.

`CCc1ccccc1NC=C1C(=O)N(c2ccc(NC(C)=O)cc2)N=C1C` came in with a melting point of 230 °C.

`CNc1cccc(NS(=O)(=O)c2ccc(N)cc2)c1`: the melting point lay within 134 to 135 °C.

Compound `CCOC1C=CC(=O)N1S(=O)(=O)c1ccccc1` (configuration not stated) came in with a melting point of 117 to 119 °C.

`COc1cccc(-c2cn(C)cc(-c3cccc(C(F)(F)F)c3)c2=O)c1OC`: the melting point fell in the range of 153 to 155 °C.

As for `O=C1c2ccc(OCCO)cc2C(=O)c2cc(-c3nnn[nH]3)ccc21`, the melting point lay in the range of 260 to 262 °C.

`CC(C)C(=O)NCc1ccc(-c2csc(N=C(N)N)n2)o1` returned a melting point of 211 to 213 °C.

`CC1(C)CCC(C(=O)N2CCC[C@H]2C(=O)O)C1SC(=O)c1ccccc1` (some centres not stated) had a melting point of 187 °C.

With `CCOc1nc2cccc(C(=O)OC)c2n1Cc1ccc(-c2ccccc2C(N)=O)cc1`, the melting point lay within 198 to 199 °C.

The compound `OCCOc1nc(N2CCCCC2)c2nc(OCCO)nc(N3CCCCC3)c2n1` displayed a melting point of 148 to 150 °C.

In turn, `CCOC(=O)C1(C(=O)Nc2ccc(C(F)(F)F)cc2)CC1` displayed a melting point of 80.5 to 82 °C.

`CN(C)S(=O)(=O)Oc1c(Cl)cc(C(C)(C)C)cc1CNC(=O)OC(C)(C)C` registered a melting point of 122 to 123 °C.

As to `CC12CCC(O)CC1CCC1C2CCC2(C)C(c3ccnnc3)CCC12O` (configuration not stated), the melting point fell in the range of 210 to 213 °C.

In turn, `CCCc1ccc(S(=O)(=O)n2c(CCC(=O)O)cc3cc(Cl)ccc32)cc1` showed a melting point of 144 to 148 °C.

Compound `COC(=O)c1cc(C(=O)NCCCCN2CCC(c3ccc4c(c3OC)CCCC4)CC2)ccc1-c1ccc(C(F)(F)F)cc1` registered a melting point of 132 °C.

On to `CCOC(=O)C1=C(C)NC(COCc2cccnc2)=C(C(=O)OCC)C1c1ccccc1[N+](=O)[O-]` (configuration not stated), for which the melting point fell in the range of 133 to 135 °C.

As for `O=C(Nc1ccc(Cl)c(C(F)(F)F)c1)Nc1ccc2ncsc2c1`, the melting point lay within 225 to 228 °C.

The compound `O=C(Cn1ccnc1)c1ccc(-c2ccncc2)cc1` yielded a melting point of 144 to 146 °C.

The compound `CCNC1C(C)CN(c2c(F)c(N)c3c(=O)c(C(=O)O)cn(C4CC4)c3c2OC)CC1C` (configuration not stated) returned a melting point of 202 to 204 °C.

`CON=Cc1nc(C)n2c1CN=C(c1ccccc1)c1cc(Cl)ccc1-2` came in with a melting point of 193 to 195 °C.

For the compound `CN(c1ccc(Cl)cc1)c1ncnc2cc(Cl)ccc12`, the melting point fell in the range of 129 to 131 °C.

Take `O=C1Cn2ncnc2-c2sccc2N1`: the melting point was in the range of 213 to 215 °C.
